Literature values as cited in patent US20110275649A1, “Combination therapy for the prevention of statin induced diabetes” (Palmetto Pharmaceuticals LLC, priority 2010, published 2011).
One block for each compound: values may come before it.

Key:
[1] = target: CYP3A4 (Homo sapiens, UniProt P08684)
[2] = JUPITER trial
[3] = tested on: carnitine palmitoyltransferase-1: CPT-1; settings: in vitro studies; e.g. by inhibition of CPT-1
[4] = compared with pravastatin
[5] = tested on: 3-keto-CoA-thiolase, or 3-KAT
[6] = tested on: QT interval
[7] = target: late sodium channel (Homo sapiens, UniProt Q14524)
Sequence of late sodium channel (Q14524 whole entry): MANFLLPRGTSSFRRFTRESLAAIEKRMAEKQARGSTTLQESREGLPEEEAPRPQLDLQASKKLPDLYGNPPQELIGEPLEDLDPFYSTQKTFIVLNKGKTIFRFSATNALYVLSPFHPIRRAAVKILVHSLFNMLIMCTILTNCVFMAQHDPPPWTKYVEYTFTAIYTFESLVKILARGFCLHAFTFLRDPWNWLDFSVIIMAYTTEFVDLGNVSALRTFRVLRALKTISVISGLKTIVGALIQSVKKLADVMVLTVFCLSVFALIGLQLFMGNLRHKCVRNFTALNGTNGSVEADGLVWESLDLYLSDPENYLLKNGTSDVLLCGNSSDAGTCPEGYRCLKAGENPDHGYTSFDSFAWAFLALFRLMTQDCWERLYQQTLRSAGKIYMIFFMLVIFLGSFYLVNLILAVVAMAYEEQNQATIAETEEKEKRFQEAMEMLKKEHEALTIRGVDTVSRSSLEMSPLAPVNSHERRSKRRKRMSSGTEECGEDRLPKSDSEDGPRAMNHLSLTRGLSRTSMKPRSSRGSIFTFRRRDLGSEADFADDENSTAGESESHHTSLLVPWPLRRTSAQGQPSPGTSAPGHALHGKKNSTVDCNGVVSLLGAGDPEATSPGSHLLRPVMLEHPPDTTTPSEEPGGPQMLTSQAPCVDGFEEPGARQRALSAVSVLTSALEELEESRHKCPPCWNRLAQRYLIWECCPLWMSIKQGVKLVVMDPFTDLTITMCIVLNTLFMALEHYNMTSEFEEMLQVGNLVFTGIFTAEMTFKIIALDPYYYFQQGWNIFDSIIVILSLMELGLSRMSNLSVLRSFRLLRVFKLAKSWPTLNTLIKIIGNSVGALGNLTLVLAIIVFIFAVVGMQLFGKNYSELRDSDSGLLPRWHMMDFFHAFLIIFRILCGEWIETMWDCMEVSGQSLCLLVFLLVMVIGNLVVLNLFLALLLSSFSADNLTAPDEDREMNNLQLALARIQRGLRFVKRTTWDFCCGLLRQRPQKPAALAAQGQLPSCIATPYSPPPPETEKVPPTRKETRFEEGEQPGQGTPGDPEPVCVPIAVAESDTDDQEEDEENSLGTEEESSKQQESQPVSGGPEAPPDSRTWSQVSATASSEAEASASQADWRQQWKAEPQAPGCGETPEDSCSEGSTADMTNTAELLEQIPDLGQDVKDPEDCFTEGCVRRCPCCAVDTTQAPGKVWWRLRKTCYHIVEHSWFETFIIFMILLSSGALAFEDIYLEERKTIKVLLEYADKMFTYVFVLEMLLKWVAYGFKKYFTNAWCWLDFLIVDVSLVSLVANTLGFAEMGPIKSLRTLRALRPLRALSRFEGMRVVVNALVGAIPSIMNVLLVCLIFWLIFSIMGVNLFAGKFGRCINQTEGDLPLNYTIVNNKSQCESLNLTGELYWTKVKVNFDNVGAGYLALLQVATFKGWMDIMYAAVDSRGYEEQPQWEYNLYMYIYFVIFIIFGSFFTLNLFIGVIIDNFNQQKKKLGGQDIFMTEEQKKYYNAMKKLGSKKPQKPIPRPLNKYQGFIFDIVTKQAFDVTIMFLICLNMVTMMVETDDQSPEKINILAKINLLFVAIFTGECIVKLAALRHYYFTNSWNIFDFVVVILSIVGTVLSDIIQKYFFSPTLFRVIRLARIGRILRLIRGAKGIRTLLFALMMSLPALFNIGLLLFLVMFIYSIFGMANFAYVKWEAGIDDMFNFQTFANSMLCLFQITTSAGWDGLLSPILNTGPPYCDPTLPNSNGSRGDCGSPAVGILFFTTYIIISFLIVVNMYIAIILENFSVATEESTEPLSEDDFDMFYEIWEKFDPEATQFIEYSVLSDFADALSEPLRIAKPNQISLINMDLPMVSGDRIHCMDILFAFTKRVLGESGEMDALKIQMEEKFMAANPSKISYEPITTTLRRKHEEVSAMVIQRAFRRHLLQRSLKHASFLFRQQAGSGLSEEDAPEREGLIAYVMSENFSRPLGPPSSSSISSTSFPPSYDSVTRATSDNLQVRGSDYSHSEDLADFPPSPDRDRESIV

Sequence of CYP3A4 (P08684 whole entry): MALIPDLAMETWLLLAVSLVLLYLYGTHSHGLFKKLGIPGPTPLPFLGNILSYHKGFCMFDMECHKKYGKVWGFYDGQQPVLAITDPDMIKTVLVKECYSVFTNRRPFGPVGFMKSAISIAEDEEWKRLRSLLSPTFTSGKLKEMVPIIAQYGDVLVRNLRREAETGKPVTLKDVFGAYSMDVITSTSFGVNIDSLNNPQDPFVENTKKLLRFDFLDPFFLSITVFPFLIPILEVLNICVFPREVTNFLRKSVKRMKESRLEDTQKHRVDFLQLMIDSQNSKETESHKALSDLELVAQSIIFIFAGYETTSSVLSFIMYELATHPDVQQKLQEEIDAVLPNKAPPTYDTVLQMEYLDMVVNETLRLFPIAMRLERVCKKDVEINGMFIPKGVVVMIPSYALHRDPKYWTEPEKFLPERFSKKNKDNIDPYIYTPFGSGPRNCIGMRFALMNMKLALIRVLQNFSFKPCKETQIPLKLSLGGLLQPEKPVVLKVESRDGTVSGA

Compound: O=C(O)C[C@H](O)C[C@H](O)/C=C/c1c(C2CC2)nc2ccccc2c1-c1ccc(F)cc1 [pitavastatin]
metabolism by CYP3A4 [1]: does not undergo metabolism by the 3A4 system

diabetes in the group receiving the statin [2]: increase in diabetes
Compound: CC(C)c1nc(N(C)S(C)(=O)=O)nc(-c2ccc(F)cc2)c1/C=C/[C@@H](O)C[C@@H](O)CC(=O)O [rosuvastatin]

Compound: C1CCC(C(CC2CCCCN2)C2CCCCC2)CC1 (stereo not drawn) [perhexiline]
myocardial fatty acid catabolism [3]: causes inhibition of myocardial fatty acid catabolism

Compound: CC(C)c1c(C(=O)Nc2ccccc2)c(-c2ccccc2)c(-c2ccc(F)cc2)n1CC[C@@H](O)C[C@@H](O)CC(=O)O [atorvastatin]
likelihood to induce diabetes [4]: much more likely to induce diabetes than pravastatin

lipid / water solubility: water soluble
Compound: CC[C@H](C)C(=O)O[C@H]1C[C@H](O)C=C2C=C[C@H](C)[C@H](CC[C@@H](O)C[C@@H](O)CC(=O)O)[C@H]21 [pravastatin]

Compound: COc1ccc(CN2CCNCC2)c(OC)c1OC [trimetazidine]
inhibition of 3-KAT [5]: inhibition of the enzyme 3-keto-CoA-thiolase

late sodium channel inhibition [7]: inhibits the late sodium channel
Compound: COc1ccccc1OCC(O)CN1CCN(CC(=O)Nc2c(C)cccc2C)CC1 (stereo not drawn) [ranolazine]
arrhythmogenic events from QT prolongation ([6]; Merlin-TIMI 36): did not cause excess arrythmogenic events
QT interval ([6]; in vivo): causes QT interval prolongation
